Patent US7510836B2, “Alpha arteether resistance domain” (priority 2003, dated 2009)
In brackets after ≈: the same amount, converted by molar mass.

Key:
E. coli CA8000 = assay: Minimum inhibitory concentration (cross resistance); assay type: cell-based; settings: Escherichia coli; strain CA8000
Text: (§1) The minimum inhibitory concentrations (MIC) of the quinolone and fluoroquinolone antibiotics were quantified for different strains and compared among each other. The differential response indicate the measure of resistance and sensitivity. Higher MIC indicate more resistance.

E. coli DH5a = assay: as above; assay type: cell-based; settings: Escherichia coli; strain DH5a
Text: as §1

E. coli ET8000 [1] = assay: as above; assay type: cell-based; settings: Escherichia coli; strain ET8000
Text: as §1

E. coli NK5819 [2] = assay: as above; assay type: cell-based; settings: Escherichia coli; strain NK5819
Text: as §1

E. coli mutant CA80010 = assay: as above; assay type: cell-based; settings: Escherichia coli, read-out: minimum inhibitory concentration (MIC)
Text: (§2) In order to develop an arteether resistant mutants from an arteether sensitive strains a reverse strategy was applied. Quinoline/fluoroquinolone (Q/FQs) resistant strains were developed spontaneously i.e. screening overnight log phase culture of the Quinolone/fluoroquinolone sensitive i.e. arteether resistant strain (E coli CA 8000) on the poison agar plate of the Q/FQs. The Q/FQ resistant mutants which appeared on the poison agar plates were first purified through single colony purification and then checked for their arteether sensitivity. These arteether sensitive mutants on the contrary when checked for their Q/Fqs resistance they show different level of Q/FQs resistance.
as §1

E. coli mutant CA80012 = assay: as above; assay type: cell-based; settings: Escherichia coli, read-out: minimum inhibitory concentration (MIC)
Text: as §2, §1

E. coli mutant CA8001 = assay: as above; assay type: cell-based; settings: Escherichia coli; strain CA8001
Text: as §2, §1

E. coli mutant CA8002 = assay: as above; assay type: cell-based; settings: Escherichia coli; strain CA8002
Text: as §2, §1

E. coli mutant CA8003 = assay: as above; assay type: cell-based; settings: Escherichia coli; strain CA8003
Text: as §2, §1

E. coli mutant CA8005 = assay: as above; assay type: cell-based; settings: Escherichia coli; strain CA8005
Text: as §2, §1

E. coli mutant CA8006 = assay: as above; assay type: cell-based; settings: Escherichia coli; strain CA8006
Text: as §2, §1

E. coli mutant CA8007 = assay: as above; assay type: cell-based; settings: Escherichia coli; strain CA8007
Text: as §2, §1

E. coli mutant CA8009 = assay: as above; assay type: cell-based; settings: Escherichia coli; strain CA8009
Text: as §2, §1

E. coli DH5α = assay: Phenotype of strain (resistance or sensitivity); assay type: cell-based, Escherichia coli; design: key to Phenotype: R: resistance; S: sensitivity
Experimental: As a result of this mutation, the said strain is also resistant to a drug called nalidixic acid.
(§3) To ascertain the involvement of gyrA mutation, another E.coli strain NK 5819 which is also GyrA″ and nalidixic acid resistant was tested for arteether sensitivity. As expected, strain NK5819 was also sensitive only to a-isomer of arteether. […] The assays for arteether sensitivity was performed by the standard single disk diffusion method (Bauer et al, 1966). As a next step, we isolated gyrA mutants of E.coli strain CA 8000, which is otherwise Gyr+ and nalidixic acid sensitive. The gyrA mutants of CA8000 were isolated as nalidixic acid resistant colonies (20 ug/ml), after mutagenic treatment with NTG ([…]). The isolated CA8000 gyrA mutants were also sensitive only to a isomer of arteether. […] To define precisely the involvement of gyr genes only in the a-arteether sensitivity, we utilised two recombinant clones (pMK 90 and pMK47 containing functional gyr A and gyrB genes respectively) in trans-complementation assays. For this purpose, we mobilized the plasmid clones into the E.coli gyr mutant strains. The resulting transformants were now nalidixic acid sensitive and a-arteether resistant. This constituted the direct evidence supporting our observation that DNA gyrase enzyme alone is involved in conferring a-arteether sensitivity to E.coli strain. […] DNA gyrase enzyme is essential for the bacterial growth. This enzyme transiently breaks the DNA strands and introduces negative superhelical turns in an ATP-dependent process. The E.coli DNA gyrase enzyme is a tetramer with two subunits A and B. These two subunits are nalidixic acid and coumermycin sensitive respectively (U.S. Pat. No. 6,127,405 and a co-pending patent).
(§4) The strains of E coli of the investigation, their phenotypes in terms of a-arteether (resistance or sensitivity, superscript R or S) or antibiotic resistance or sensitivity, change in nucleotide position of the gyrase A gene leading to the phenotype, corresponding amino acid change in the protein and the position of amino acid change are being described. Always the phenotype a-arteether resistance is accompanied with quinolone or fluoroquinolone sensitivity and vice versa.

E. coli ET8000 [3] = assay: Phenotype of strain (resistance or sensitivity); assay type: cell-based, Escherichia coli; design: key: R: resistance; S: sensitivity; settings: gyrA GAC-AAC(259), Asp-Asn 87
Text: as §4

E. coli NK5819 [4] = assay: Phenotype of strain (resistance or sensitivity); assay type: cell-based, Escherichia coli; design: key to Phenotype: R: resistance; S: sensitivity
Experimental: as §3, §4

E. coli CA8001 = assay: Phenotype of strain (resistance or sensitivity); assay type: cell-based, Escherichia coli; design: key: R: resistance; S: sensitivity; settings: gyrA GGT-TGT(241), Gly-Cys 81
Text: as §2, §4

E. coli CA8002 = assay: Phenotype of strain (resistance or sensitivity); assay type: cell-based, Escherichia coli; design: key: R: resistance; S: sensitivity; settings: gyrA GGT-TGT(241), Gly-Cys 81
Text: as §2, §4

E. coli CA8003 = assay: Phenotype of strain (resistance or sensitivity); assay type: cell-based, Escherichia coli; design: key: R: resistance; S: sensitivity; settings: gyrA GAC-GGC(260), Asp-Gly 87
Text: as §2, §4

E. coli CA8005 = assay: Phenotype of strain (resistance or sensitivity); assay type: cell-based, Escherichia coli; design: key: R: resistance; S: sensitivity; settings: gyrA GAC-GGC(260), Asp-Gly 87
Text: as §2, §4

E. coli CA8006 = assay: Phenotype of strain (resistance or sensitivity); assay type: cell-based, Escherichia coli; design: key: R: resistance; S: sensitivity; settings: gyrA TCG-TTG(248), Ser-Leu 83
Text: as §2, §4

E. coli CA8007 = assay: Phenotype of strain (resistance or sensitivity); assay type: cell-based, Escherichia coli; design: key: R: resistance; S: sensitivity; settings: gyrA TCG-TTG(248), Ser-Leu 83
Text: as §2, §4

E. coli CA8009 = assay: Phenotype of strain (resistance or sensitivity); assay type: cell-based, Escherichia coli; design: key: R: resistance; S: sensitivity; settings: gyrA TCG-TTG(248), Ser-Leu 83
Text: as §2, §4

E. coli CA8010 = assay: Phenotype of strain (resistance or sensitivity); assay type: cell-based, Escherichia coli; design: key: R: resistance; S: sensitivity; settings: gyrA TCG-TTG(248), Ser-Leu 83
Text: as §2, §4

[5] = tested on: E. coli mutant strain AR 9 CA8014; assay: Phenotype of revertant (resistance or sensitivity); assay type: cell-based, Escherichia coli; design: key: R: resistance; S: sensitivity; settings: gyrA AAC-GAC(259), Asn-Asp 87
Text: as §4
(§5) The commercially available strain E. coli DH5[…] (Stratagene, USA) is sensitive to […]-arteether but resistant to quinolone/fluoroquinolone due to a mutation at 87th aminoacid position of the gyr A protein (Aspartic acid of wild type is changed to Aspargine) with corresponding change in the codon GAC to AAC. This strain was used to screen […]-arteether resistant mutations. The observation was startling as the […]-arteether resistant mutants are the exact reversion at the 87th position of the aminoacid of gyrase A subunit i.e. Aspargine changed to aspartic acid, with corresponding change in the codon AAC to GAC.

[6] = tested on: E.coli strain CA 8000 (Gyr+); assay: Phenotype of strain (resistance or sensitivity); assay type: cell-based, Escherichia coli; settings: E.coli CA 8000 (Gyr+)
Experimental: as §3, with “This enzyme transiently breaks the DNA strands and introduces negative superhelical turns in an ATP-dependent process. The E.coli DNA gyrase enzyme is a tetramer with two subunits A and B. These two subunits are nalidixic acid and coumermycin sensitive respectively (U.S. Pat. No. 6,127,405 and a co-pending patent).” left out

[7] = tested on: E.coli gyr mutant strains transformed with pMK 90 and pMK47 (functional gyr A and gyrB genes); assay: Trans-complementation assay; assay type: cell-based, Escherichia coli; settings: gyr mutant strains carrying pMK 90 / pMK47
Experimental: as §3, with “This enzyme transiently breaks the DNA strands and introduces negative superhelical turns in an ATP-dependent process. The E.coli DNA gyrase enzyme is a tetramer with two subunits A and B. These two subunits are nalidixic acid and coumermycin sensitive respectively (U.S. Pat. No. 6,127,405 and a co-pending patent).” left out

malaria = settings: antimalarial; cited from earlier work
E. coli CA8012 = assay: Phenotype of strain (resistance or sensitivity); assay type: cell-based, Escherichia coli; design: key: R: resistance; S: sensitivity; settings: gyrA GGT-GAT(242), Gly-Asp 81
Text: as §2, §4

[8] = tested on: E. coli mutant strain Rev 4; assay: Phenotype of revertant (resistance or sensitivity); assay type: cell-based, Escherichia coli; design: key: R: resistance; S: sensitivity; settings: gyrA GAT-GGT(242), Asp-Gly 81
Text: as §4, §5

[9] = tested on: E. coli mutant strain Rev 5; assay: Phenotype of revertant (resistance or sensitivity); assay type: cell-based, Escherichia coli; design: key: R: resistance; S: sensitivity; settings: gyrA GAT-GGT(242), Asp-Gly 81
Text: as §4, §5

[10] = tested on: E. coli mutant strain Rev 6; assay: Phenotype of revertant (resistance or sensitivity); assay type: cell-based, Escherichia coli; design: key: R: resistance; S: sensitivity; settings: gyrA GAT-GGT(242), Asp-Gly 81
Text: as §4, §5

[11] = tested on: E. coli mutant strain Rev. 1; assay: Phenotype of revertant (resistance or sensitivity); assay type: cell-based, Escherichia coli; design: key: R: resistance; S: sensitivity; settings: gyrA GAT-GGT(242), Asp-Gly 81
Text: as §4, §5

[12] = tested on: E. coli mutant strain Rev. 2; assay: Phenotype of revertant (resistance or sensitivity); assay type: cell-based, Escherichia coli; design: key: R: resistance; S: sensitivity; settings: gyrA GAT-GGT(242), Asp-Gly 81
Text: as §4, §5

[13] = tested on: E. coli mutant strain Rev. 3; assay: Phenotype of revertant (resistance or sensitivity); assay type: cell-based, Escherichia coli; design: key: R: resistance; S: sensitivity; settings: gyrA GAT-GGT(242), Asp-Gly 81
Text: as §4, §5

Compound	MIC (E. coli CA8000)	MIC (E. coli DH5a)	MIC (E. coli ET8000 [1])	MIC (E. coli NK5819 [2])	MIC (E. coli mutant CA80010)	MIC (E. coli mutant CA80012)	MIC (E. coli mutant CA8001)	MIC (E. coli mutant CA8002)	MIC (E. coli mutant CA8003)	MIC (E. coli mutant CA8005)	MIC (E. coli mutant CA8006)	MIC (E. coli mutant CA8007)	MIC (E. coli mutant CA8009)	Sensitivity or resistance of the strain (words) [6]	other results
CCn1cc(C(=O)O)c(=O)c2ccc(C)nc21 [Nalidixic acid]	2 µg/mL (≈ 8.61 µM)	50 µg/mL (≈ 215 µM)	100 µg/mL (≈ 431 µM)	20 µg/mL (≈ 86.1 µM)	100 µg/mL (≈ 431 µM)	100 µg/mL (≈ 431 µM)	150 µg/mL (≈ 646 µM)	150 µg/mL (≈ 646 µM)	150 µg/mL (≈ 646 µM)	150 µg/mL (≈ 646 µM)	150 µg/mL (≈ 646 µM)	100 µg/mL (≈ 431 µM)	100 µg/mL (≈ 431 µM)	sensitive	Phenotype (E. coli DH5α; DH5α, gyrA GAC-AAC(259), Asp-Asn 87): R; Sensitivity or resistance of the strain (words) (E. coli DH5α; E.coli DH5a (gyrA 96; Asp87Asn)): resistant; Phenotype (E. coli ET8000 [3]): R; Sensitivity or resistance of the strain (words) (E. coli NK5819 [4]; E.coli NK 5819 (GyrA mutant)): resistant; Phenotype (E. coli NK5819 [4]; NK5819, gyrA GAC-TAC(259), Asp-Gly 87): R; Phenotype (E. coli CA8001): R; Phenotype (E. coli CA8002): R; Phenotype (E. coli CA8003): R; Phenotype (E. coli CA8005): R; Phenotype (E. coli CA8006): R; Phenotype (E. coli CA8007): R; Phenotype (E. coli CA8009): R; Phenotype (E. coli CA8010): R; Phenotype [5]: S; Sensitivity or resistance of transformants [7]: sensitive
CCO[C@H]1O[C@@H]2O[C@@]3(C)CC[C@H]4[C@H](C)CC[C@@H]([C@H]1C)[C@@]24OO3 [arteethers, arteether]	–	–	–	–	–	–	–	–	–	–	–	–	–	resistant	Potency relative to artemisinin (malaria): 2-3 times
CCn1cc(C(=O)O)c(=O)c2cc(F)c(N3CCNC(C)C3)c(F)c21 (stereo not drawn) [Lomefloxacin]	< 0.05 µg/mL	0.5 µg/mL (≈ 1.42 µM)	> 2 µg/mL	< 0.5 µg/mL	1.5 µg/mL (≈ 4.27 µM)	1.5 µg/mL (≈ 4.27 µM)	1.5 µg/mL (≈ 4.27 µM)	1.5 µg/mL (≈ 4.27 µM)	2.5 µg/mL (≈ 7.12 µM)	0.5 µg/mL (≈ 1.42 µM)	1.5 µg/mL (≈ 4.27 µM)	1.5 µg/mL (≈ 4.27 µM)	1.5 µg/mL (≈ 4.27 µM)	–	Phenotype (E. coli CA8012): R; Phenotype [8]: S; Phenotype [9]: S; Phenotype [10]: S; Phenotype [11]: S; Phenotype [12]: S; Phenotype [13]: S
